Reference: BindingDB's records for PubMed 10215672 (Taisho Pharmaceutical, 1999)
Values joined by “and” are separate entries in the source; they are usually repeats but may differ in a detail not shown here. Equal entries are not always repeated.

What was measured:
[1] = molecular target: Corticotropin-releasing factor receptor 2 (Rattus norvegicus, UniProt P47866)
[2] = molecular target: T1, Corticotropin-releasing factor receptor 1 (Rattus norvegicus, UniProt P35353)
T1 sequence (P35353 whole entry): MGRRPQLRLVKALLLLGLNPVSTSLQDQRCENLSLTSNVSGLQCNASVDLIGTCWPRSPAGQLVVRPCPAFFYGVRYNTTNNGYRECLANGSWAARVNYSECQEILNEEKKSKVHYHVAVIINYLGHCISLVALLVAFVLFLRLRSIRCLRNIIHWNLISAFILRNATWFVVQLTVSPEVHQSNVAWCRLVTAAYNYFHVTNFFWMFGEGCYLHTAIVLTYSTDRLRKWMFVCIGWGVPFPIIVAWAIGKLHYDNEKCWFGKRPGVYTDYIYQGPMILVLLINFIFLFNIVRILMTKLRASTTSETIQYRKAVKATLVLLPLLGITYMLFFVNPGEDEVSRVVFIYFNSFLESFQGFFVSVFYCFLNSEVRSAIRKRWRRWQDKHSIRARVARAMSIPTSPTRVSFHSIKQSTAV

Sequence of Corticotropin-releasing factor receptor 2 (P47866 whole entry): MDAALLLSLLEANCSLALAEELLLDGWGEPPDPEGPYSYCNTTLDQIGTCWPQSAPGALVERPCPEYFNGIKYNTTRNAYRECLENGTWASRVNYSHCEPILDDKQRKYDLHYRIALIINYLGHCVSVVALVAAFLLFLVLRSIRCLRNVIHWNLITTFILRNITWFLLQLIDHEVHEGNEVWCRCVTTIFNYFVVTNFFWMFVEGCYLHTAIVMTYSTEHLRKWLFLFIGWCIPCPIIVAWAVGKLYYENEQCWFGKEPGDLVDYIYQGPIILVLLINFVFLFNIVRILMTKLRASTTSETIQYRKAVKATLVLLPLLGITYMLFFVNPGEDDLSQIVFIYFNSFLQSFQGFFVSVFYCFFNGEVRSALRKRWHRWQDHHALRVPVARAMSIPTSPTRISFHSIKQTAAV

Row | SMILES | Ki [1] | Ki [2]
1 | CCCCN(CC)c1nc(C)nc2c1c(C)cn2-c1c(C)cc(C)cc1C | > 10000 nM | 1.8 nM
2 | COCCN(CCOC)c1nc(C)nc2c1nnn2-c1ccc(C(C)C)cc1Br | > 10000 nM | 14.8 nM and 20.7 nM
3 | CCN(c1nc(C)cc(N2CCC=C(c3cccc(F)c3)C2)n1)c1ccc(CC(C)C)cc1Br [CRA1001] | > 10000 nM | 22.3 nM and 18.6 nM
